The NIST ThermoML archive (doi:10.1021/je300526w)
± gives the expanded uncertainty stated by the source.

Assay: xn = mol fraction of the nth substance listed
Conditions: Liquid, Vibrating tube method

CCCCCCCCCCCCCCCCCC [octadecane] + CCCCCCCCCC
mass density [kg/m3]
Conditions	1000 kPa	2000 kPa	3000 kPa	4000 kPa	5000 kPa	6000 kPa	7000 kPa	8000 kPa	9000 kPa	10000 kPa
295.1 K, x2 = 0.5	759.7 ± 0.4	760.4 ± 0.4	761.1 ± 0.4	761.7 ± 0.4	762.4 ± 0.4	763.1 ± 0.4	763.7 ± 0.4	764.4 ± 0.4	765.1 ± 0.4	765.8 ± 0.4
295.2 K, x2 = 0.75	745.7 ± 0.4	746.4 ± 0.4	747.1 ± 0.4	747.9 ± 0.4	748.6 ± 0.4	749.3 ± 0.4	750 ± 0.4	750.7 ± 0.4	751.4 ± 0.4	752.1 ± 0.4
295.8 K, x2 = 0.9	733.9 ± 0.4	734.7 ± 0.4	735.4 ± 0.4	736.2 ± 0.4	736.9 ± 0.4	737.6 ± 0.4	738.4 ± 0.4	739.1 ± 0.4	739.9 ± 0.4	740.6 ± 0.4
